What was measured:
[1] = Ratio of (Ka) of octopamine to that of compound; format: ADME
Lampyridae [2] = test: V max is determined from stimulation of firefly light organ adenylate cyclase; format: functional
[3] = Kinetic constant (Ka) of compound against octopamine receptor; format: ADME
Lampyridae [4] = test: Vmax is determined from stimulation of firefly light organ adenylate cyclase; format: functional

| Compound | Ratio [1] | Vmax (Lampyridae [2]) [%] | other results |
| --- | --- | --- | --- |
| CCc1cc(N)cc(CC)c1N=C1NCCN1 | 1.3 |  |  |
| CCc1cc(N=[N+]=[N-])cc(CC)c1NC1=NCCN1 |  | 100 | Vmax (Lampyridae [2]; tested as the 3H-labelled form): 100% |
| CN(CCCl)c1cc(Cl)c(N=C2NCCN2)c(Cl)c1 | 6 |  |  |
| CN(CCCl)c1cc(Cl)c(NC2=NCCN2)c(Cl)c1 |  | 5 |  |
| CCc1c(Br)c(N)c(Br)c(CC)c1N=C1NCCN1 | 15 |  |  |
| [3H]c1c(CC)c(N=C2NCCN2)c(CC)c([3H])c1N=[N+]=[N-] | 86 |  |  |
| CCc1cc(N=[N+]=[N-])cc(CC)c1N=C1NCCN1 | 70 |  | Ka [3]: 350 nM |
| CCc1c(Br)c(N)c(Br)c(CC)c1NC1=NCCN1 |  | 24 |  |
| CCc1cccc(CC)c1NC1=NCCN1 | 12 |  | Vmax (Lampyridae [4]): 100% |
| CCc1cc(N)cc(CC)c1NC1=NCCN1 |  | 82 |  |
| NCC(O)c1ccc(O)cc1 (stereo not given) [OCTOPAMINE] | 1 | 100 |  |
